Patent publication US11701372B2, “Inhalation formulations of 1'-cyano substituted carba-nucleoside analogs” (priority 2020, dated 2023)
Read-outs that look alike come from different tables or passages of the source.

Key:
[1] = assay type: physicochemical; details: for % assay/degs: T = 0
Procedure: For each condition, samples were staged at ambient and refrigerated conditions. Samples were analyzed for % assay/degs, appearance, reconstitution time, pH, and compared to T=0. The structures of the key impurities/metabolites are shown below.

[2] = In use testing of reconstituted solutions in IV bags and IV tubings; assay type: physicochemical
Text: The IV bags and IV tubings were sampled over time and tested for % assay/degradation.

[3] = 30 mg (IV Bag), T = 0 (2-8° C. series)
[4] = 30 mg (IV Tube), Ambient 6 Hours
[5] = 30 mg in 100 mL 0.9% Saline (IV Bag), T = 0 (Ambient series)
[6] = 200 mg (IV Bag), T = 0 (2-8° C. series)
[7] = 200 mg in 100 mL 0.9% Saline (IV Bag), T = 0 (Ambient series)

CCC(CC)COC(=O)[C@H](C)N[P@](=O)(OC[C@H]1O[C@@](C(N)=O)(c2ccc3c(N)ncnn23)[C@H](O)[C@@H]1O)Oc1ccccc1 [Compound G]
0.00%: % assay/degs, difference from T = 0 ([1]; pH 1.8, 2-8° C., 2 h) | % assay/degs, difference from T = 0 ([1]; pH 1.8, 2-8° C., 3 h) | % assay/degs, difference from T = 0 ([1]; pH 1.8, 2-8° C., 8 h) | % assay/degs, difference from T = 0 ([1]; pH 1.8, 2-8° C., 24 h) | % assay/degs, difference from T = 0 ([1]; pH 1.8, 2-8° C., 48 h) | % assay/degs, difference from T = 0 ([1]; pH 1.8, Ambient, 1 h) | % assay/degs, difference from T = 0 ([1]; pH 1.8, Ambient, 2 h) | % assay/degs, difference from T = 0 ([1]; pH 1.8, Ambient, 3 h) | % assay/degs, difference from T = 0 ([1]; pH 1.8, Ambient, 8 h) | % assay/degs, difference from T = 0 ([1]; pH 1.8, Ambient, 24 h) | % assay/degs, difference from T = 0 ([1]; pH 1.8, Ambient, 48 h) | % assay/degs, difference from T = 0 ([1]; pH 2.0, 2-8° C., 2 h) | % assay/degs, difference from T = 0 ([1]; pH 2.0, 2-8° C., 3 h) | % assay/degs, difference from T = 0 ([1]; pH 2.0, 2-8° C., 8 h) | % assay/degs, difference from T = 0 ([1]; pH 2.0, 2-8° C., 24 h) | % assay/degs, difference from T = 0 ([1]; pH 2.0, 2-8° C., 48 h) | % assay/degs, difference from T = 0 ([1]; pH 2.0, Ambient, 1 h) | % assay/degs, difference from T = 0 ([1]; pH 2.0, Ambient, 2 h) | % assay/degs, difference from T = 0 ([1]; pH 2.0, Ambient, 3 h) | % assay/degs, difference from T = 0 ([1]; pH 2.0, Ambient, 8 h) | % assay/degs, difference from T = 0 ([1]; pH 2.0, Ambient, 24 h) | % assay/degs, difference from T = 0 ([1]; pH 2.0, Ambient, 48 h) | % assay/degs, difference from T = 0 ([1]; pH 3.5, 2-8° C., 2 h) | % assay/degs, difference from T = 0 ([1]; pH 3.5, 2-8° C., 8 h) | % assay/degs, difference from T = 0 ([1]; pH 3.5, 2-8° C., 24 h) | % assay/degs, difference from T = 0 ([1]; pH 3.5, 2-8° C., 48 h) | % assay/degs, difference from T = 0 ([1]; pH 3.5, 2-8° C., 72 h) | % assay/degs, difference from T = 0 ([1]; pH 3.5, 2-8° C., 96 h) | % assay/degs, difference from T = 0 ([1]; pH 3.5, 2-8° C., 168 h) | % assay/degs, difference from T = 0 ([1]; pH 3.5, Ambient, 2 h) | % assay/degs, difference from T = 0 ([1]; pH 3.5, Ambient, 8 h) | % assay/degs, difference from T = 0 ([1]; pH 3.5, Ambient, 24 h) | % assay/degs, difference from T = 0 ([1]; pH 3.5, Ambient, 48 h) | % assay/degs, difference from T = 0 ([1]; pH 3.5, Ambient, 72 h) | % assay/degs, difference from T = 0 ([1]; pH 3.5, Ambient, 96 h) | % assay/degs, difference from T = 0 ([1]; pH 3.5, Ambient, 168 h) | % assay/degs, difference from T = 0 ([1]; pH 3.8, 2-8° C., 7.2 h) | % assay/degs, difference from T = 0 ([1]; pH 3.8, 2-8° C., 24 h) | % assay/degs, difference from T = 0 ([1]; pH 3.8, 2-8° C., 96 h) | % assay/degs, difference from T = 0 ([1]; pH 3.8, 2-8° C., 168 h) | % assay/degs, difference from T = 0 ([1]; pH 3.8, Ambient, 7.2 h) | % assay/degs, difference from T = 0 ([1]; pH 3.8, Ambient, 24 h) | % assay/degs, difference from T = 0 ([1]; pH 3.8, Ambient, 96 h) | % assay/degs, difference from T = 0 ([1]; pH 3.8, Ambient, 168 h) | % assay/degs, difference from T = 0 ([1]; pH 4.0, 2-8° C., 7.2 h) | % assay/degs, difference from T = 0 ([1]; pH 4.0, 2-8° C., 24 h) | % assay/degs, difference from T = 0 ([1]; pH 4.0, 2-8° C., 96 h) | % assay/degs, difference from T = 0 ([1]; pH 4.0, 2-8° C., 168 h) | % assay/degs, difference from T = 0 ([1]; pH 4.0, Ambient, 7.2 h) | % assay/degs, difference from T = 0 ([1]; pH 4.0, Ambient, 24 h) | % assay/degs, difference from T = 0 ([1]; pH 4.0, Ambient, 96 h) | % assay/degs, difference from T = 0 ([1]; pH 4.0, Ambient, 168 h)
0.05%: % assay/degs ([1]; pH 1.8) | % assay/degs ([1]; pH 2.0) | % assay/degs ([1]; pH 3.5) | % assay/degs ([1]; pH 3.8)
0.06 % w/w: % assay/degradation ([2]; 30 mg (IV Bag), 2-8° C. 48 h) | % assay/degradation ([2]; 30 mg (IV Bag), Ambient 4 h) | % assay/degradation ([2]; 30 mg (IV Bag), Ambient 8 h) | % assay/degradation ([2]; 30 mg (IV Bag), Ambient 24 h) | % assay/degradation [2, 4] | % assay/degradation ([2]; 200 mg (IV Bag), 2-8° C. 48 h) | % assay/degradation ([2]; 200 mg (IV Bag), Ambient 4 h) | % assay/degradation ([2]; 200 mg (IV Bag), Ambient 8 h) | % assay/degradation ([2]; 200 mg (IV Bag), Ambient 24 h)
0.05 % w/w: % assay/degradation ([2]; 30 mg (IV Bag), 2-8° C. 24 h) | % assay/degradation [2, 3] | % assay/degradation [2, 5] | % assay/degradation ([2]; 200 mg (IV Bag), 2-8° C. 24 h) | % assay/degradation [2, 6] | % assay/degradation ([2]; 200 mg (IV Tube), Ambient 6 h) | % assay/degradation [2, 7]
0.06%: % assay/degs ([1]; pH 4.0)

N#C[C@@]1(c2ccc3c(N)ncnn23)O[C@H](COP(=O)(O)Oc2ccccc2)[C@@H](O)[C@H]1O [Compound F]
0.68%: % assay/degs, difference from T = 0 ([1]; pH 2.0, Ambient, 24 h)
0.25%: % assay/degs, difference from T = 0 ([1]; pH 2.0, 2-8° C., 48 h)
1.37%: % assay/degs, difference from T = 0 ([1]; pH 2.0, Ambient, 48 h)
0.06 % w/w: % assay/degradation ([2]; 30 mg (IV Bag), 2-8° C. 48 h) | % assay/degradation ([2]; 30 mg (IV Bag), Ambient 4 h) | % assay/degradation [2, 3] | % assay/degradation [2, 4] | % assay/degradation [2, 5] | % assay/degradation ([2]; 200 mg (IV Bag), 2-8° C. 24 h) | % assay/degradation ([2]; 200 mg (IV Bag), 2-8° C. 48 h) | % assay/degradation ([2]; 200 mg (IV Bag), Ambient 4 h) | % assay/degradation ([2]; 200 mg (IV Bag), Ambient 8 h) | % assay/degradation [2, 6] | % assay/degradation ([2]; 200 mg (IV Tube), Ambient 6 h) | % assay/degradation [2, 7]
0.10%: % assay/degs, difference from T = 0 ([1]; pH 3.8, Ambient, 168 h)
0.08 % w/w: % assay/degradation ([2]; 30 mg (IV Bag), Ambient 24 h) | % assay/degradation ([2]; 200 mg (IV Bag), Ambient 24 h)
0.03%: % assay/degs, difference from T = 0 ([1]; pH 1.8, 2-8° C., 3 h) | % assay/degs, difference from T = 0 ([1]; pH 2.0, Ambient, 1 h) | % assay/degs, difference from T = 0 ([1]; pH 3.5, 2-8° C., 168 h) | % assay/degs, difference from T = 0 ([1]; pH 3.5, Ambient, 24 h)
0.34%: % assay/degs, difference from T = 0 ([1]; pH 1.8, Ambient, 8 h)
0.39%: % assay/degs, difference from T = 0 ([1]; pH 1.8, 2-8° C., 48 h)
0.22%: % assay/degs, difference from T = 0 ([1]; pH 2.0, Ambient, 8 h)
0.01%: % assay/degs, difference from T = 0 ([1]; pH 3.5, 2-8° C., 48 h) | % assay/degs, difference from T = 0 ([1]; pH 3.5, 2-8° C., 72 h) | % assay/degs, difference from T = 0 ([1]; pH 3.5, Ambient, 8 h) | % assay/degs, difference from T = 0 ([1]; pH 3.8, 2-8° C., 96 h) | % assay/degs, difference from T = 0 ([1]; pH 3.8, 2-8° C., 168 h) | % assay/degs, difference from T = 0 ([1]; pH 3.8, Ambient, 7.2 h) | % assay/degs, difference from T = 0 ([1]; pH 4.0, 2-8° C., 96 h) | % assay/degs, difference from T = 0 ([1]; pH 4.0, 2-8° C., 168 h) | % assay/degs, difference from T = 0 ([1]; pH 4.0, Ambient, 24 h)
0.00%: % assay/degs, difference from T = 0 ([1]; pH 3.5, 2-8° C., 2 h) | % assay/degs, difference from T = 0 ([1]; pH 3.5, 2-8° C., 8 h) | % assay/degs, difference from T = 0 ([1]; pH 3.5, 2-8° C., 24 h) | % assay/degs, difference from T = 0 ([1]; pH 3.5, Ambient, 2 h) | % assay/degs, difference from T = 0 ([1]; pH 3.8, 2-8° C., 7.2 h) | % assay/degs, difference from T = 0 ([1]; pH 3.8, 2-8° C., 24 h) | % assay/degs, difference from T = 0 ([1]; pH 4.0, 2-8° C., 7.2 h) | % assay/degs, difference from T = 0 ([1]; pH 4.0, 2-8° C., 24 h) | % assay/degs, difference from T = 0 ([1]; pH 4.0, Ambient, 7.2 h)
0.13%: % assay/degs, difference from T = 0 ([1]; pH 1.8, Ambient, 3 h) | % assay/degs, difference from T = 0 ([1]; pH 2.0, 2-8° C., 24 h)
0.05%: % assay/degs, difference from T = 0 ([1]; pH 2.0, Ambient, 2 h) | % assay/degs, difference from T = 0 ([1]; pH 3.5, Ambient, 48 h)
0.19%: % assay/degs, difference from T = 0 ([1]; pH 3.5, Ambient, 168 h)
1.05%: % assay/degs, difference from T = 0 ([1]; pH 1.8, Ambient, 24 h)
0.04%: % assay/degs, difference from T = 0 ([1]; pH 1.8, Ambient, 1 h) | % assay/degs, difference from T = 0 ([1]; pH 4.0, Ambient, 96 h)
0.02%: % assay/degs, difference from T = 0 ([1]; pH 1.8, 2-8° C., 2 h) | % assay/degs, difference from T = 0 ([1]; pH 2.0, 2-8° C., 2 h) | % assay/degs, difference from T = 0 ([1]; pH 2.0, 2-8° C., 3 h) | % assay/degs, difference from T = 0 ([1]; pH 3.5, 2-8° C., 96 h) | % assay/degs ([1]; pH 3.5) | % assay/degs, difference from T = 0 ([1]; pH 3.8, Ambient, 24 h) | % assay/degs ([1]; pH 3.8) | % assay/degs ([1]; pH 4.0)
0.20%: % assay/degs, difference from T = 0 ([1]; pH 1.8, 2-8° C., 24 h)
0.07 % w/w: % assay/degradation ([2]; 30 mg (IV Bag), 2-8° C. 24 h) | % assay/degradation ([2]; 30 mg (IV Bag), Ambient 8 h)
0.11%: % assay/degs, difference from T = 0 ([1]; pH 3.5, Ambient, 96 h)
0.08%: % assay/degs, difference from T = 0 ([1]; pH 1.8, 2-8° C., 8 h) | % assay/degs, difference from T = 0 ([1]; pH 1.8, Ambient, 2 h) | % assay/degs ([1]; pH 1.8) | % assay/degs, difference from T = 0 ([1]; pH 2.0, Ambient, 3 h) | % assay/degs, difference from T = 0 ([1]; pH 3.5, Ambient, 72 h)
2.09%: % assay/degs, difference from T = 0 ([1]; pH 1.8, Ambient, 48 h)
0.06%: % assay/degs, difference from T = 0 ([1]; pH 2.0, 2-8° C., 8 h) | % assay/degs ([1]; pH 2.0) | % assay/degs, difference from T = 0 ([1]; pH 3.8, Ambient, 96 h)
0.07%: % assay/degs, difference from T = 0 ([1]; pH 4.0, Ambient, 168 h)
